Kd data for three molecules are collected here from paper PMC11544072 (Heliyon, 2024).

In the experiment the target is CYP154C7. As to the kind of experiment: UV/Vis spectral titration, type I spin shift. The format is binding, Streptomyces sp. PAMC26508.
In the case of `C[C@]12CCC(=O)C=C1CC[C@@H]1[C@@H]2C(=O)C[C@@]2(C)[C@H]1CC[C@]2(O)C(=O)CO` [cortisone], the Kd came out at 2000 ± 340 nM.
For the molecule `C[C@]12CC[C@H]3[C@@H](CCC4=CC(=O)CC[C@@]43C)[C@@H]1CC[C@@H]2O` [testosterone], the equilibrium dissociation constant (Kd) turned out to be 304 ± 70 nM.
As to `C[C@]12CCC(=O)C=C1CC[C@@H]1[C@@H]2CC[C@]2(C)C(=O)CC[C@@H]12` [androstenedione], the Kd was found to be 201 ± 43 nM.

Usually Kd stands for the concentration at which binding is half-saturated.
